Source: patent publication US11390589B2, “Herbicidally active substituted phenylpyrimidines” (Bayer Aktiengesellschaft, priority 2018, dated 2022)

Legend:
Assay type in all cases: in vivo
[1] = tested on: harmful plants; assay: Method D: herbicidal pre-emergence action, summary in text; details: applied pre-emergence, table D (1280 g/ha)
Excerpt: (§1) Method D: Herbicidal Pre-Emergence Action Seeds of mono- and dicotyledonous weed plants are placed in plastic pots in sandy loam soil (doubly sown with one species each of mono- or dicotyledonous weed plants per pot) and covered with soil. The compounds of the invention, formulated in the form of wettable powders (WP) or as emulsion concentrates (EC), are then applied onto the surface of the covering soil as aqueous suspension or emulsion with addition of 0.5% additive at a water application rate of 600 liters per hectare (converted). After the treatment, the pots are placed in a greenhouse and kept under good growth conditions for the trial plants. After about 3 weeks, the effect of the preparations is scored visually in comparison with untreated controls as percentages. For example, 100% activity=the plants have died, 0% activity=like control plants.

[2] = tested on: harmful plants; assay: Method E: herbicidal early post-emergence action, summary in text; details: applied in early post-emergence, table E (1900 g/ha)
Description: (§2) Method E: Herbicidal Early Post-Emergence Action Seeds of monocotyledonous or dicotyledonous weed plants are placed in 96-well microtiter plates in quartz sand and grown in a climatized chamber under controlled growth conditions. 5 to 7 days after sowing, the test plants are treated at the cotyledon stage. The compounds of the invention, formulated in the form of emulsion concentrates (EC), are applied with a water application rate of the equivalent of 2200 liters per hectare. After the test plants had been left to stand in the climatized chamber for 9 to 12 days under optimum growth conditions, the effect of the preparations is scored visually in comparison to untreated controls. For example, 100% activity=the plants have died, 0% activity=like control plants.

[3] = tested on: Abufilon theophrast; assay: Method D: herbicidal pre-emergence action; details: scored visually after about 3 weeks
Excerpt: as §1

[4] = tested on: Stellaria media; assay: Method D: herbicidal pre-emergence action; details: scored visually after about 3 weeks
Excerpt: as §1

[5] = tested on: Lolium rigidum; assay: Method D: herbicidal pre-emergence action; details: scored visually after about 3 weeks
Excerpt: as §1

[6] = tested on: Matricaria inodora; assay: Method D: herbicidal pre-emergence action; details: scored visually after about 3 weeks
Excerpt: as §1

[7] = tested on: Setaria viridis; assay: Method D: herbicidal pre-emergence action; details: scored visually after about 3 weeks
Excerpt: as §1

[8] = tested on: Poa annua; assay: Method D: herbicidal pre-emergence action; details: scored visually after about 3 weeks
Excerpt: as §1

[9] = tested on: Echinochloa crus-galli; assay: Method D: herbicidal pre-emergence action; details: scored visually after about 3 weeks
Excerpt: as §1

[10] = tested on: harmful plants; assay: Method C: herbicidal post-emergence action, summary in text; details: applied post-emergence, table C (1280 g/ha)
Description: (§3) Method C: Herbicidal Post-Emergence Action Seeds of mono- and dicotyledonous weed plants are placed in plastic pots in sandy loam soil (doubly sown with one species each of mono- or dicotyledonous weed plants per pot), covered with soil and cultivated in a greenhouse under controlled growth conditions. 2 to 3 weeks after sowing, the test plants are treated at the one-leaf stage. The compounds of the invention, formulated in the form of wettable powders (WP) or as emulsion concentrates (EC), are applied to the green parts of the plants as aqueous suspension or emulsion with addition of 0.5% additive at a water application rate equivalent to 600 liters per hectare. After the test plants have been kept in the greenhouse under optimum growth conditions for about 3 weeks, the activity of the preparations is rated visually in comparison to untreated controls. For example, 100% activity=the plants have died, 0% activity=like control plants.

[11] = tested on: Stellaria media; assay: Method E: herbicidal early post-emergence action; details: cotyledon stage, 96-well microtiter plates, scored visually after 9 to 12 days
Description: as §2

[12] = tested on: Lolium perenne; assay: Method E: herbicidal early post-emergence action; details: cotyledon stage, 96-well microtiter plates, scored visually after 9 to 12 days
Description: as §2

[13] = tested on: Agrostis tenuis; assay: Method E: herbicidal early post-emergence action; details: cotyledon stage, 96-well microtiter plates, scored visually after 9 to 12 days
Description: as §2

[14] = tested on: Poa annua; assay: Method E: herbicidal early post-emergence action; details: cotyledon stage, 96-well microtiter plates, scored visually after 9 to 12 days
Description: as §2

[15] = tested on: Matricaria chamonilla; assay: Method E: herbicidal early post-emergence action; details: cotyledon stage, 96-well microtiter plates, scored visually after 9 to 12 days
Description: as §2

[16] = tested on: Stellaria media; assay: Method C: herbicidal post-emergence action; details: rated visually after about 3 weeks
Description: as §3

[17] = tested on: Lolium rigidum; assay: Method C: herbicidal post-emergence action; details: rated visually after about 3 weeks
Description: as §3

[18] = tested on: Poa annua; assay: Method C: herbicidal post-emergence action; details: rated visually after about 3 weeks
Description: as §3

[19] = tested on: Echinochloa crus-galli; assay: Method C: herbicidal post-emergence action; details: rated visually after about 3 weeks
Description: as §3

SMILES	herbicidal efficacy against harmful plants [1]	herbicidal efficacy against harmful plants [2]	Pre-emergence action at 1280 g/ha ABUTH [3] [%]	Pre-emergence action at 1280 g/ha STEME [4] [%]	Pre-emergence action at 1280 g/ha LOLRI [5] [%]	Pre-emergence action at 1280 g/ha MATIN [6] [%]	Pre-emergence action at 1280 g/ha SETVI [7] [%]	Pre-emergence action at 1280 g/ha POAAN [8] [%]	Pre-emergence action at 1280 g/ha ECHCG [9] [%]	herbicidal efficacy against harmful plants [10]	Early post-emergence action at 1900 g/ha STEME [11] [%]	Early post-emergence action at 1900 g/ha LOLPE [12] [%]	Early post-emergence action at 1900 g/ha AGSTE [13] [%]	Early post-emergence action at 1900 g/ha POAAN [14] [%]	Early post-emergence action at 1900 g/ha MATCH [15] [%]	Post-emergence action at 1280 g/ha STEME [16] [%]	Post-emergence action at 1280 g/ha LOLRI [17] [%]	Post-emergence action at 1280 g/ha POAAN [18] [%]	Post-emergence action at 1280 g/ha ECHCG [19] [%]
CN(NC(=O)C(=O)Cc1nc(C2CC2)ncc1-c1ccccc1Cl)C(=O)OC(C)(C)C [IV-137, tert-butyl 2-{3-[5-(2-chlorophenyl)-2-cyclopropylpyrimidin-4-yl]-2-oxopropanoyl}-1-methylhydrazinecarboxylate]	very good herbicidal efficacy	very good herbicidal efficacy	90	100	90	90	90	100	90	very good herbicidal efficacy	100	80	100	80	80	100	100	100	100
O=C(Cc1nc(C2CC2)ncc1-c1c(F)cccc1Cl)C(=O)N1CCCCC1 [Example I-146, 3-[5-(2-chloro-6-fluorophenyl)-2-cyclopropylpyrimidin-4-yl]-1-(piperidin-1-yl)propane-1,2-dione]											80	80	80	80	80				
